Measured values published in ChEMBL document CHEMBL2062415, “Steroids from Commiphora mukul display antiproliferative effect against human prostate cancer PC3 cells via induction of apoptosis” (Bioorg Med Chem Lett, 2012).

Legend:
[1] = system: PC-3; assay: Cytotoxicity against human PC3 cells after 24 hrs by MTT assay; type: functional, cell-based; settings: PC-3, 24 h
[2] = system: DU-145; assay: Cytotoxicity against human DU145 cells after 24 hrs by MTT assay; type: functional, cell-based; settings: DU-145, 24 h
[3] = system: K562; assay: Cytotoxicity against human K562 cells after 24 hrs by MTT assay; type: functional, cell-based; settings: K562, 24 h
[4] = system: MCF7; assay: Cytotoxicity against human MCF7 cells after 24 hrs by MTT assay; type: functional, cell-based; settings: MCF7, 24 h
[5] = system: PC-3; assay: Cytotoxicity against human PC3 cells assessed as cell viability at 10 uM after 24 hrs by MTT assay; type: functional; settings: PC-3, 24 h, read-out: Activity
[6] = system: K562; assay: Cytotoxicity against human K562 cells assessed as cell viability at 10 uM after 24 hrs by MTT assay; type: functional; settings: K562, 24 h, read-out: Activity
[7] = system: MCF7; assay: Cytotoxicity against human MCF7 cells assessed as cell viability at 10 uM after 24 hrs by MTT assay; type: functional; settings: MCF7, 24 h, read-out: Activity
[8] = system: PC-3; assay: Induction of apoptosis in human PC3 cells assessed as early apoptotic cells at 20 uM after 48 hrs by annexinV/propidium iodide staining-based FITC analysis relative to control; type: functional
[9] = system: PC-3; assay: Induction of apoptosis in human PC3 cells assessed as late apoptotic cells at 20 uM after 48 hrs by annexinV/propidium iodide staining-based FITC analysis relative to control; type: functional
[10] = system: PC-3; assay: Induction of apoptosis in human PC3 cells assessed as necrotic cells at 20 uM after 48 hrs by annexinV/propidium iodide staining-based FITC analysis relative to control; type: functional
[11] = system: PC-3; assay: Induction of apoptosis in human PC3 cells assessed as early apoptotic cells at 30 uM after 48 hrs by annexinV/propidium iodide staining-based FITC analysis relative to control; type: functional
[12] = system: PC-3; assay: Induction of apoptosis in human PC3 cells assessed as late apoptotic cells at 30 uM after 48 hrs by annexinV/propidium iodide staining-based FITC analysis relative to control; type: functional
[13] = system: PC-3; assay: Induction of apoptosis in human PC3 cells assessed as necrotic cells at 30 uM after 48 hrs by annexinV/propidium iodide staining-based FITC analysis relative to control; type: functional
[14] = system: PC-3; assay: Induction of apoptosis in human PC3 cells assessed as early apoptotic cells at 40 uM after 48 hrs by annexinV/propidium iodide staining-based FITC analysis relative to control; type: functional
[15] = system: PC-3; assay: Induction of apoptosis in human PC3 cells assessed as late apoptotic cells at 40 uM after 48 hrs by annexinV/propidium iodide staining-based FITC analysis relative to control; type: functional
[16] = system: PC-3; assay: Induction of apoptosis in human PC3 cells assessed as necrotic cells at 40 uM after 48 hrs by annexinV/propidium iodide staining-based FITC analysis relative to control; type: functional
[17] = system: PC-3; assay: Cell cycle arrest in human PC3 cells assessed as accumulation at G0/G1 phase after 48 hrs by propidium iodide staining-based flow cytometric analysis; type: functional
[18] = system: PC-3; assay: Cell cycle arrest in human PC3 cells assessed as accumulation at G0/G1 phase at 20 uM after 48 hrs by propidium iodide staining-based flow cytometric analysis relative to control; type: functional
[19] = system: PC-3; assay: Cell cycle arrest in human PC3 cells assessed as accumulation at S phase at 20 uM after 48 hrs by propidium iodide staining-based flow cytometric analysis relative to control; type: functional
[20] = system: PC-3; assay: Cell cycle arrest in human PC3 cells assessed as accumulation at G2/M phase at 20 uM after 48 hrs by propidium iodide staining-based flow cytometric analysis relative to control; type: functional
[21] = system: PC-3; assay: Cell cycle arrest in human PC3 cells assessed as accumulation at G0/G1 phase at 30 uM after 48 hrs by propidium iodide staining-based flow cytometric analysis relative to control; type: functional
[22] = system: PC-3; assay: Cell cycle arrest in human PC3 cells assessed as accumulation at S phase at 30 uM after 48 hrs by propidium iodide staining-based flow cytometric analysis relative to control; type: functional
[23] = system: PC-3; assay: Cell cycle arrest in human PC3 cells assessed as accumulation at G2/M phase at 30 uM after 48 hrs by propidium iodide staining-based flow cytometric analysis relative to control; type: functional
[24] = system: PC-3; assay: Cell cycle arrest in human PC3 cells assessed as accumulation at G0/G1 phase at 40 uM after 48 hrs by propidium iodide staining-based flow cytometric analysis relative to control; type: functional
[25] = system: PC-3; assay: Cell cycle arrest in human PC3 cells assessed as accumulation at S phase at 40 uM after 48 hrs by propidium iodide staining-based flow cytometric analysis relative to control; type: functional
[26] = system: PC-3; assay: Cell cycle arrest in human PC3 cells assessed as accumulation at G2/M phase at 40 uM after 48 hrs by propidium iodide staining-based flow cytometric analysis relative to control; type: functional
[27] = system: PC-3; assay: Induction of apoptosis in human PC3 cells assessed as early apoptotic cells at 10 uM after 48 hrs by annexinV/propidium iodide staining-based FITC analysis relative to control; type: functional
[28] = system: PC-3; assay: Induction of apoptosis in human PC3 cells assessed as late apoptotic cells at 10 uM after 48 hrs by annexinV/propidium iodide staining-based FITC analysis relative to control; type: functional
[29] = system: PC-3; assay: Induction of apoptosis in human PC3 cells assessed as necrotic cells at 10 uM after 48 hrs by annexinV/propidium iodide staining-based FITC analysis relative to control; type: functional
[30] = system: PC-3; assay: Cell cycle arrest in human PC3 cells assessed as accumulation at G0/G1 phase at 10 uM after 48 hrs by propidium iodide staining-based flow cytometric analysis relative to control; type: functional
[31] = system: PC-3; assay: Cell cycle arrest in human PC3 cells assessed as accumulation at S phase at 10 uM after 48 hrs by propidium iodide staining-based flow cytometric analysis relative to control; type: functional
[32] = system: PC-3; assay: Cell cycle arrest in human PC3 cells assessed as accumulation at G2/M phase at 10 uM after 48 hrs by propidium iodide staining-based flow cytometric analysis relative to control; type: functional

## CC[C@H](/C=C/[C@@H](C)[C@H]1CC[C@H]2[C@@H]3CC=C4C[C@@H](O)CC[C@]4(C)[C@H]3[C@H](O)C[C@]12C)C(C)C
[1]
  IC50: 32.4 µM
[2]
  IC50: 46.8 µM
[3]
  IC50: 7.18 µM
[4]
  IC50: 13.5 µM
[5]
  viability at 10 µM: 94.5%
[6]
  viability at 10 µM: 43%
[7]
  viability at 10 µM: 68%
[8]
  Activity: 1.77%
[9]
  Activity: 1.91%
[10]
  Activity: 0.96%
[11]
  Activity: 1.14%
[12]
  Activity: 2.95%
[13]
  Activity: 1.41%
[14]
  Activity: 1.32%
[15]
  Activity: 2.49%
[16]
  Activity: 1.52%
[17]
  Activity: Dose-dependent effect
[18]
  Activity: 59.89%
[19]
  Activity: 21.63%
[20]
  Activity: 18.47%
[21]
  Activity: 70.27%
[22]
  Activity: 16.4%
[23]
  Activity: 13.33%
[24]
  Activity: 76.37%
[25]
  Activity: 11.24%
[26]
  Activity: 12.39%

## COc1cccc2c1C(=O)c1c(O)c3c(c(O)c1C2=O)C[C@@](O)(C(=O)CO)C[C@@H]3O[C@H]1C[C@H](N)[C@H](O)[C@H](C)O1 [DOXORUBICIN]
[1]
  IC50: 8.46 µM
[2]
  IC50: 13.2 µM
[3]
  IC50: 3.79 µM
[4]
  IC50: 1.37 µM

## C/C=C1\C(=O)C[C@H]2[C@@H]3CCC4=CC(=O)CC[C@]4(C)[C@H]3CC[C@]12C [GUGGULSTERONE]
[5]
  viability at 10 µM: 80%
[6]
  viability at 10 µM: 84%
[7]
  viability at 10 µM: 65%

## CC[C@H](/C=C/[C@@H](C)[C@H]1CC[C@H]2[C@@H]3CC=C4C[C@@H](O)CC[C@]4(C)[C@H]3CC[C@]12C)C(C)C [STIGMASTEROL]
[1]
  IC50: 18.3 µM
[2]
  IC50: 22.7 µM
[3]
  IC50: 11.1 µM
[4]
  IC50: 21.4 µM
[5]
  viability at 10 µM: 60%
[6]
  viability at 10 µM: 43%
[7]
  viability at 10 µM: 68%
[27]
  Activity: 2.78%
[28]
  Activity: 3.18%
[29]
  Activity: 1.05%
[8]
  Activity: 2.3%
[9]
  Activity: 3.77%
[10]
  Activity: 1.51%
[14]
  Activity: 2.73%
[15]
  Activity: 5.42%
[16]
  Activity: 2.07%
[30]
  Activity: 52.07%
[31]
  Activity: 26.9%
[32]
  Activity: 21.03%
[18]
  Activity: 51.41%
[19]
  Activity: 30.4%
[20]
  Activity: 18.19%
[24]
  Activity: 50.58%
[25]
  Activity: 36.4%
[26]
  Activity: 21.03%
